Each molecule was assayed on m-IMCD3 cells (assay: Inhibition of PGE2-stimulated in vitro cyst formation in 3D culture of m-IMCD3 cells (Experiment 4)). Settings: Mus musculus, mIMCD3, 144 h, 10 μM test compound, mean cyst area compared to 100% for (DMSO + PGE2) and 0% for DMSO control, read-out: % Cyst area* after incubation with 10 μM test compound.
Format: cell-based, mouse
Method: HEK 293 and MDCK cells (Public Health England, Cell Culture Collections) were maintained in Dulbecco's Modified Eagle's Medium (DMEM) supplemented with 10% (v/v) fetal bovine serum (FBS) (Seralab), 2 mM L-glutamine and 100 U/ml penicillin streptomycin cocktail (ThermoFisher); termed complete media. Clonal HEK 293 cell lines were maintained in complete media supplemented with 0.6 mg/mL G418 (Enzo Life Sciences). Mouse inner medullary collecting duct (m-IMCD3) cells [American Type Culture Collection (ATCC)] were maintained in media consisting of DMEM/Hams F-12 50/50 Mix (DMEM F12; Corning) supplemented with penicillin streptomycin cocktail (100 U/ml) and FBS (10% v/v) (DMEM F12-10% FBS).
The mouse Inner Medullary Collecting Duct cell line (m-IMCD3) spontaneously forms cystic spheroids in 3D culture with a Type 1 collagen/Matrigel extracellular matrix. This process can be stimulated with agents which raise intracellular cAMP and is used as an in vitro model for the formation of cystic structures in the kidneys of patients with ADPKD.
Rat Collagen I (Fisher Scientific) is prepared on ice by neutralising with 1 M NaOH and diluting with a 2×volume of DMEM/F12+10% FBS. This is mixed 1:1.1 with ice cold Matrigel (Corning) for coating plates (coating mix), and 1:0.93 with Matrigel for cell plating (plating mix).
The assay is conducted in the wells of a 96-well plate culture dish using a total volume of 130 μL of collagen/Matrigel/DMEM F12-10% FBS suspension in growth media for each matrix plug per individual well. Initially, 30 μL of collagen/Matrigel/DMEM F12-10% FBS (coating mix) is added into the well of a 96 well plate and the collagen is set to a gel by incubating at 37° C. for at least 15 minutes. A second layer of 100 μL collagen/Matrigel suspension (plating mix) containing m-IMCD3 cells (2.75×10^6 m-IMCD3 cells per 96-well plate) is layered over the coating mix and the collagen/Matrigel/cell mix again set to a gel by incubating at 37° C. Cell cultures are maintained at 37° C. in an atmosphere of 5% CO2, 95% air.
Between 18 and 24 h after plating, test compound(s) as DMSO stock solutions [0.1% (v/v) final DMSO concentration] and PGE2 (100 nM final concentration) in DMEM F12-10% FBS are added in quadruplicate wells per condition. Media, together with the test compound and PGE2 are replenished after 2 or 3 days. After 6 days of culture z stack images of the wells are captured using the Nikon Eclipse Ti2-E microscope. Nikon General Analysis software is used to measure the following parameters in each well: the mean cyst area, the number of cysts, and the total cyst area.
PDE4 long form activators inhibited in vitro cyst formation in m-IMCD3 cells. Data are shown in FIG. 2 and Table 4 as mean cyst area (%), compared to 100% for (DMSO+PGE2) and 0% for DMSO control.

| SMILES | activity at 10 µM [%] |
| --- | --- |
| CN1CCN(c2nc3cc(C(=O)N[C@H]4CCOc5ccccc54)ccn3n2)CC1 [Example 56, (S)—N-(chroman-4-yl)-2-(4-methylpiperazin-1-yl)-[1,2,4]triazolo[1,5-a]pyridine-7-carboxamide] | 14 |
| O=C(NC1CCC(F)(F)CC1)c1ccc2nc(N3C4CCC3CNC4)sc2n1 [Example 116, 2-(3,8-diazabicyclo[3.2.1]octan-8-yl)-N-(4,4-difluorocyclohexyl)thiazolo[5,4-b]pyridine-5-carboxamide] | -1 |
| O=C(N[C@H]1CCc2ccccc21)c1ccn2nc(N3CCNCC3)nc2c1 [Example 62, (S)—N-(2,3-dihydro-1H-inden-1-yl)-2-(piperazin-1-yl)-[1,2,4]triazolo[1,5-a]pyridine-7-carboxamide] | 0 |
| CCN1CCC(c2cc3ncc(C(=O)N[C@H]4CCOc5ccccc54)cn3n2)CC1 [Example 84, (S)—N-(chroman-4-yl)-2-(1-ethylpiperidin-4-yl)pyrazolo[1,5-a]pyrimidine-6-carboxamide] | 7 |
| CCN1CCN(c2nc3cc(C(=O)N[C@H]4CCOc5ccccc54)ccc3o2)CC1 [Example 102, (S)—N-(chroman-4-yl)-2-(4-ethylpiperazin-1-yl)benzo[d]oxazole-5-carboxamide] | 8 |
| CN1CCC(c2nc3cc(C(=O)NC4CCCC4)ccc3o2)CC1 [Example 98, N-cyclopentyl-2-(1-methylpiperidin-4-yl)benzo[d]oxazole-5-carboxamide] | -3 |
| CC(C)N1CCN(c2nc3ccc(C(=O)N[C@H]4CCOc5ccccc54)cn3n2)CC1 [Example 46, (S)—N-(chroman-4-yl)-2-(4-isopropylpiperazin-1-yl)-[1,2,4]triazolo[1,5-a]pyridine-6-carboxamide] | 4 |
| CC(C)N1CCN(c2nc3cc(C(=O)N[C@H]4CCOc5ccccc54)ccn3n2)CC1 [Example 61, (S)—N-(chroman-4-yl)-2-(4-isopropylpiperazin-1-yl)-[1,2,4]triazolo[1,5-a]pyridine-7-carboxamide] | 10 |
| O=C(N[C@H]1CCc2ccccc21)c1ccc2nc(N3CCNCC3)nn2c1 [Example 48, (S)—N-(2,3-dihydro-1H-inden-1-yl)-2-(piperazin-1-yl)-[1,2,4]triazolo[1,5-a]pyridine-6-carboxamide] | 22 |
| CN1CCC(c2nc3ccc(C(=O)N[C@H]4CCOc5ccccc54)cn3n2)CC1 [Example 50, (S)—N-(chroman-4-yl)-2-(1-methylpiperidin-4-yl)-[1,2,4]triazolo[1,5-a]pyridine-6-carboxamide] | 6 |
| O=C(NC1CCCC1)c1cnc2cc(N3C4CCC3CNC4)sc2c1 [Example 121, 2-(3,8-diazabicyclo[3.2.1]octan-8-yl)-N-cyclopentylthieno[3,2-b]pyridine-6-carboxamide] | 3 |
| CCN1CCN(c2nc3ccc(C(=O)NC4CCCC4)cc3o2)CC1 [Example 108, N-cyclopentyl-2-(4-ethylpiperazin-1-yl)benzo[d]oxazole-6-carboxamide] | 24 |
| CCN1CCN(c2cc3ncc(C(=O)N[C@H]4CCc5ccccc54)cn3n2)CC1 [Example 75, (S)—N-(2,3-dihydro-1H-inden-1-yl)-2-(4-ethylpiperazin-1-yl)pyrazolo[1,5-a]pyrimidine-6-carboxamide] | 19 |
| Cc1c(C(=O)NC2CCC(F)(F)CC2)cnc2cc(C3CCN(C)CC3)nn12 [Example 96, N-(4,4-difluorocyclohexyl)-7-methyl-2-(1-methylpiperidin-4-yl)pyrazolo[1,5-a]pyrimidine-6-carboxamide] | 11 |
| CN1CC2CCC(C1)N2c1cc2ncc(C(=O)NC3CCCC3)cn2n1 [Example 81, N-cyclopentyl-2-(3-methyl-3,8-diazabicyclo[3.2.1]octan-8-yl)pvrazolo[1,5-a]pyrimidine-6-carboxamide] | -3 |
| CCN1CCN(c2cc3ncc(C(=O)NC4CCCCC4)cn3n2)CC1 [Example 73, N-cyclohexyl-2-(4-ethylpiperazin-1-yl)pyrazolo[1,5-a]pyrimidine-6-carboxamide] | -3 |
| Cc1c(C(=O)NC2CCC(F)(F)CC2)cnc2cc(C3CCNCC3)nn12 [Example 91, N-(4,4-difluorocyclohexyl)-7-methyl-2-(piperidin-4-yl)pyrazolo[1,5-a]pyrimidine-6-carboxamide] | 5 |
| Cc1ncccc1-c1nc2cc(C(=O)N[C@H]3CCOc4ccccc43)ccc2n1C [Example 22, (S)—N-(chroman-4-yl)-1-methyl-2-(2-methylpyridin-3-yl)-1H-benzo[d]imidazole-5-carboxamide] | 18 |
| CCN1CCN(c2nc3cc(C(=O)NC4CCCC4)ccc3o2)CC1 [Example 103, N-cyclopentyl-2-(4-ethylpiperazin-1-yl)benzo[d]oxazole-5-carboxamide] | -1 |
| Cc1ncccc1-c1nc2cc(C(=O)N[C@H]3CCOc4ccccc43)ccn2n1 [Example 52, (S)—N-(chroman-4-yl)-2-(2-methylpyridin-3-yl)-[1,2,4]triazolo[1,5-a]pyridine-7-carboxamide] | 19 |

Reference: US20260007680A1, “Compounds and Their Use as PDE4 Activators” (Mironid Limited, priority 2022, published 2026)
